Where only a bound is given, the exact number is not on record here.

For this assay, the target named is T1, BRD4 bromodomains (Homo sapiens, UniProt O60885).
T1 construct: fused on or other part: T7 phage capsid protein (phage-display fusion; the phage DNA is read out by qPCR)
Kind of assay: BROMOscan bromodomain competition binding assay (DiscoveRx). Particulars: Kd from 11 compound concentrations ranging from 0 to 10 μM, read-out: BROMOscan Relative Activity. On the procedure: Bromodomain assays were conducted to measure interactions between certain compounds and bromodomains.
The assays were conducted according to BROMOscan protocol from Discover Rx. Briefly, BRD4 bromodomains expressed as a fusion capsid protein of T7 phage were bound to acetylated peptide ligand on a solid phase and competition bindings were performed. T7 phage strains displaying bromodomains were grown in parallel in 24-well blocks in an E. coli host derived from the BL21 strain. E. coli were grown to log-phase and infected with T7 phage from a frozen stock (multiplicity of infection=0.4) and incubated with shaking at 32° C. until lysis (90-150 minutes). The lysates were centrifuged (5,000×g) and filtered (0.2 μm) to remove cell debris. […] The liganded beads were blocked with excess biotin and washed with blocking buffer (SeaBlock (Pierce), 1% BSA, 0.05% Tween 20, 1 mM DTT) to remove unbound ligand and to reduce non-specific phage binding. […] Test compounds were prepared as 1000× stocks in 100% DMSO and subsequently diluted 1:10 in monoethylene glycol (MEG) to create stocks at 100× the screening concentration (resulting stock solution is 10% DMSO/90% MEG). The compounds were then diluted directly into the assays such that the final concentration of DMSO and MEG were 0.1% and 0.9%, respectively. All reactions were performed in polystyrene 96-well plates in a final volume of 0.135 ml. […] The bromodomain concentration in the eluates was measured by qPCR. Data was collected at 11 compound concentrations ranging from 0 to 10 μM. Kd values were then derived from a standard dose-response curve generated with Hill equation (Hill Slope was set to ˜1) and a non-linear least square fit with the Levenberg-Marquardt algorithm. Response=Background+Signal−Background/1+(Kd Hill Slope/Dose Hill Slope)
On to `Cc1noc(C)c1-c1ccc2nc(-c3cnn(C4COC4)c3)nc(NCc3cccc(Cl)c3)c2c1` [Example 61, N-(3-chlorobenzyl)-6-(3,5-dimethylisoxazol-4-yl)-2-(1-(oxetan-3-yl)-1H-pyrazol-4-yl)quinazolin-4-amine], for which the Kd was under 500 nM.

On to `Cc1noc(C)c1-c1ccc2nc(-c3cnn(C(C)(C)CO)c3)nc(NCc3cccc(Cl)c3)c2c1` [Example 62, 2-(4-(4-((3-chlorobenzyl)amino)-6-(3,5-dimethylisoxazol-4-yl)quinazolin-2-yl)-1H-pyrazol-1-yl)-2-methylpropan-1-ol], for which the Kd was under 500 nM.

`Cc1noc(C)c1-c1ccc2nc(-c3ccc(CO)nc3)nc(NCc3cccc(Cl)c3)c2c1` [Example 63, (5-(4-((3-chlorobenzyl)amino)-6-(3,5-dimethylisoxazol-4-yl)quinazolin-2-yl)pyridin-2-yl)methanol]: the Kd is under 500 nM. The same measure for `CN(C)CCN1CCN(c2nc(NCc3cccc(Cl)c3)c3cc(-c4cn[nH]c4)ccc3n2)CC1` [Example 64, N-(3-chlorobenzyl)-2-(4-(2-(dimethylamino)ethyl)piperazin-1-yl)-6-(1H-pyrazol-4-yl)quinazolin-4-amine]: over 5000 nM; for `Cc1n[nH]c(C)c1-c1ccc2nc(N3CCN(CCN(C)C)CC3)nc(NCc3cccc(Cl)c3)c2c1` [Example 65, N-(3-chlorobenzyl)-6-(3,5-dimethyl-1H-pyrazol-4-yl)-2-(4-(2-(dimethylamino)ethyl)piperazin-1-yl)quinazolin-4-amine]: 500 to 5000 nM; for `CN(C)CCN1CCN(c2nc(NCc3cccc(Cl)c3)c3cc(-c4ccc(=O)n(C)c4)ccc3n2)CC1` [Example 66, 5-(4-((3-chlorobenzyl)amino)-2-(4-(2-(dimethylamino)ethyl)piperazin-1-yl)quinazolin-6-yl)-1-methylpyridin-2(1H)-one]: under 500 nM. The same measure for `CN(C)CCN1CCN(c2nc(NCc3cccc(Cl)c3)c3cc(-c4ccc(O)nc4)ccc3n2)CC1` [Example 67, 5-(4-((3-chlorobenzyl)amino)-2-(4-(2-(dimethylamino)ethyl)piperazin-1-yl)quinazolin-6-yl)pyridin-2-ol]: 500 to 5000 nM; for `Cc1noc(C)c1-c1ccc2nc(N3CCN(CCN(C)C)CC3)nc(O)c2c1` [Example 68, 2-(4-(2-(dimethylamino)ethyl)piperazin-1-yl)-6-(3,5-dimethylisoxazol-4-yl)quinazolin-4-ol]: 500 to 5000 nM. The same measure for `Cc1noc(C)c1-c1ccc2nc(-c3c(C)noc3C)nc(NCc3cccs3)c2c1` [Example 69, 2,6-bis(3,5-dimethylisoxazol-4-yl)-N-(thiophen-2-ylmethyl)quinazolin-4-amine]: 500 to 5000 nM. `Cc1noc(C)c1-c1ccc2nc(-c3c(C)noc3C)nc(NCc3cccc(Cl)c3)c2c1` [Example 70, N-(3-chlorobenzyl)-2,6-bis(3,5-dimethylisoxazol-4-yl)quinazolin-4-amine]: the Kd is 500 to 5000 nM. The same measure for `Cc1noc(C)c1-c1ccc2nc(N3CCN(CCN(C)C)CC3)nc(NCc3cccs3)c2c1` [Example 71, 2-(4-(2-(dimethylamino)ethyl)piperazin-1-yl)-6-(3,5-dimethylisoxazol-4-yl)-N-(thiophen-2-ylmethyl)quinazolin-4-amine]: under 500 nM. The same measure for `COc1ccccc1CNc1nc(N2CCN(CCN(C)C)CC2)nc2ccc(-c3c(C)noc3C)cc12` [Example 72, 2-(4-(2-(dimethylamino)ethyl)piperazin-1-yl)-6-(3,5-dimethylisoxazol-4-yl)-N-(2-methoxybenzyl)quinazolin-4-amine]: under 500 nM; for `COc1cccc(CNc2nc(N3CCN(CCN(C)C)CC3)nc3ccc(-c4c(C)noc4C)cc23)c1` [Example 73, 2-(4-(2-(dimethylamino)ethyl)piperazin-1-yl)-6-(3,5-dimethylisoxazol-4-yl)-N-(3-methoxybenzyl)quinazolin-4-amine]: under 500 nM; for `Cc1noc(C)c1-c1ccc2nc(N3CCN(CCN(C)C)CC3)nc(NCc3ccccc3Cl)c2c1` [Example 74, N-(2-chlorobenzyl)-2-(4-(2-(dimethylamino)ethyl)piperazin-1-yl)-6-(3,5-dimethylisoxazol-4-yl)quinazolin-4-amine]: under 500 nM. The same measure for `Cc1noc(C)c1-c1ccc2nc(N3CCN(CCN(C)C)CC3)nc(NCc3cccc(Br)c3)c2c1` [Example 75, N-(3-bromobenzyl)-2-(4-(2-(dimethylamino)ethyl)piperazin-1-yl)-6-(3,5-dimethylisoxazol-4-yl)quinazolin-4-amine]: under 500 nM; for `Cc1noc(C)c1-c1ccc2nc(N3CCN(CCN(C)C)CC3)nc(NCc3ccccc3F)c2c1` [Example 76, 2-(4-(2-(dimethylamino)ethyl)piperazin-1-yl)-6-(3,5-dimethylisoxazol-4-yl)-N-(2-fluorobenzyl)quinazolin-4-amine]: under 500 nM. For `Cc1noc(C)c1-c1ccc2nc(N3CCN(CCN(C)C)CC3)nc(NCc3cccc(F)c3)c2c1` [Example 77, 2-(4-(2-(dimethylamino)ethyl)piperazin-1-yl)-6-(3,5-dimethylisoxazol-4-yl)-N-(3-fluorobenzyl)quinazolin-4-amine], the Kd is under 500 nM. For `Cc1oncc1-c1ccc2nc(N3CCN(CCN(C)C)CC3)nc(NCc3cccc(Cl)c3)c2c1` [Example 78, N-(3-chlorobenzyl)-2-(4-(2-(dimethylamino)ethyl)piperazin-1-yl)-6-(5-methylisoxazol-4-yl)quinazolin-4-amine], the Kd was in the range of 500 to 5000 nM. The same measure for `Cc1noc(C)c1-c1ccc2nc(N3CCN(CCN(C)C)CC3)nc(NCc3ccco3)c2c1` [Example 79, 2-(4-(2-(dimethylamino)ethyl)piperazin-1-yl)-6-(3,5-dimethylisoxazol-4-yl)-N-(furan-2-ylmethyl)quinazolin-4-amine]: 500 to 5000 nM; for `Cc1noc(C)c1-c1ccc2nc(N3CCN(CCN(C)C)CC3)nc(NCc3cccnc3)c2c1` [Example 80, 2-(4-(2-(dimethylamino)ethyl)piperazin-1-yl)-6-(3,5-dimethylisoxazol-4-yl)-N-(pyridin-3-ylmethyl)quinazolin-4-amine]: under 500 nM; for `Cc1noc(C)c1-c1ccc2nc(N3CCN(CCN(C)C)CC3)nc(NCc3cncc(Cl)c3)c2c1` [Example 81, N-((5-chloropyridin-3-yl)methyl)-2-(4-(2-(dimethylamino)ethyl)piperazin-1-yl)-6-(3,5-dimethylisoxazol-4-yl)quinazolin-4-amine]: under 500 nM. The figure for `Cc1noc(C)c1-c1ccc2nc(N3CCN(CCN(C)C)CC3)nc(NCc3cc(Cl)ccn3)c2c1` [Example 82, N-((4-chloropyridin-2-yl)methyl)-2-(4-(2-(dimethylamino)ethyl)piperazin-1-yl)-6-(3,5-dimethylisoxazol-4-yl)quinazolin-4-amine] is under 500 nM. The figure for `Cc1noc(C)c1-c1ccc2nc(N3CCN(CCN(C)C)CC3)nc(NCc3cncc(F)c3)c2c1` [Example 83, 2-(4-(2-(dimethylamino)ethyl)piperazin-1-yl)-6-(3,5-dimethylisoxazol-4-yl)-N-((5-fluoropyridin-3-yl)methyl)quinazolin-4-amine] is under 500 nM. On to `Cc1ccncc1CNc1nc(N2CCN(CCN(C)C)CC2)nc2ccc(-c3c(C)noc3C)cc12` [Example 84, 2-(4-(2-(dimethylamino)ethyl)piperazin-1-yl)-6-(3,5-dimethylisoxazol-4-yl)-N-((4-methylpyridin-3-yl)methyl)quinazolin-4-amine], for which the Kd is under 500 nM.

On to `Cc1noc(C)c1-c1ccc2nc(N3CCN(CCN(C)C)CC3)nc(N(C)Cc3cccc(Cl)c3)c2c1` [Example 85, N-(3-chlorobenzyl)-2-(4-(2-(dimethylamino)ethyl)piperazin-1-yl)-6-(3,5-dimethylisoxazol-4-yl)-N-methylquinazolin-4-amine], for which the Kd is under 500 nM. The same measure for `CN(C)CCN1CCN(c2nc(NCc3cccc(Cl)c3)c3cc(-c4cnc(O)c(F)c4)ccc3n2)CC1` [Example 86, 5-(4-((3-chlorobenzyl)amino)-2-(4-(2-(dimethylamino)ethyl)piperazin-1-yl)quinazolin-6-yl)-3-fluoropyridin-2-ol]: 500 to 5000 nM; for `Cc1csc(CNc2nc(N3CCN(CCN(C)C)CC3)nc3ccc(-c4c(C)noc4C)cc23)c1` [Example 87, 2-(4-(2-(dimethylamino)ethyl)piperazin-1-yl)-6-(3,5-dimethylisoxazol-4-yl)-N-((4-methylthiophen-2-yl)methyl)quinazolin-4-amine]: under 500 nM; for `Cc1ccc(CNc2nc(N3CCN(CCN(C)C)CC3)nc3ccc(-c4c(C)noc4C)cc23)s1` [Example 88, 2-(4-(2-(dimethylamino)ethyl)piperazin-1-yl)-6-(3,5-dimethylisoxazol-4-yl)-N-((5-methylthiophen-2-yl)methyl)quinazolin-4-amine]: under 500 nM.

The record behind these values is patent US11028079B2 (ConverGene LLC, priority 2015, dated 2021).
